Measurements as given in patent US10766884B2 (Pfizer Inc., priority 2018, dated 2020).
Where a name gives a salt, the structure may show the parent alone.

Tests used:
CDK4/Cyclin D1 = CDK4/Cyclin D1 (Homo sapiens (Human), UniProt P11802); assay: CDK4/Cyclin D1 mobility shift assay; type: biochemical; conditions: activated CDK4/Cyclin D1, 3.5 mM ATP, Morrison fit; read-out: CDK4D1 Ki
CDK6/Cyclin D3 = CDK6/Cyclin D3 (Homo sapiens (Human), UniProt Q00534); assay: CDK6/Cyclin D3 mobility shift assay; type: biochemical; conditions: activated CDK6/Cyclin D3, 3.5 mM ATP, Morrison fit; read-out: CDK6_D3 Ki
CDK6 = CDK6 (Homo sapiens (Human), UniProt Q00534); assay: Phospho-Serine 795 Rb ELISA assay in MV4-11 cells; type: cell-based; conditions: overnight treatment, phospho-Rb S795, read-out: CDK6 pRB S795 ELISA MV4-11 cells IC50
CDK4 = CDK4 (Homo sapiens (Human), UniProt P11802); assay: Phospho-Serine 795 Rb ELISA assay in JEKO-1 cells; type: cell-based; conditions: overnight treatment, phospho-Rb S795, read-out: CDK4 pRB S795 ELISA JEKO-1 cells IC50
CDK4, sequence (P11802 2-303): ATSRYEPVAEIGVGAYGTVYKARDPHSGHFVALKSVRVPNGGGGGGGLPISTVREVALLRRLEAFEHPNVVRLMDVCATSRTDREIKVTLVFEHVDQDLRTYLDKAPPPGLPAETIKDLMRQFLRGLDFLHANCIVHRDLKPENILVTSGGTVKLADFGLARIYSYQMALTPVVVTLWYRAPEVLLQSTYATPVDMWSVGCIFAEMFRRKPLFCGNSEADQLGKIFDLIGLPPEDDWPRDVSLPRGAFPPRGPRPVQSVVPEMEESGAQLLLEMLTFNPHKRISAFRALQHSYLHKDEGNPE
CDK4, sequence (P24385 whole entry partner): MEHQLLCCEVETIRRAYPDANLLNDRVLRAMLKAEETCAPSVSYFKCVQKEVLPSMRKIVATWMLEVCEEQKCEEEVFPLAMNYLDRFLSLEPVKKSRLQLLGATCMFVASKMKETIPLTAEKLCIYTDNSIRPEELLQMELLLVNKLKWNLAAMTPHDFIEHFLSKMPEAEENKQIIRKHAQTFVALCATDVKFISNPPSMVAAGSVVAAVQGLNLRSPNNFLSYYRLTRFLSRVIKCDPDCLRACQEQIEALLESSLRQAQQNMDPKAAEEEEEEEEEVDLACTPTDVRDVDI

CDK4/Cyclin D1, sequence (P11802 whole entry): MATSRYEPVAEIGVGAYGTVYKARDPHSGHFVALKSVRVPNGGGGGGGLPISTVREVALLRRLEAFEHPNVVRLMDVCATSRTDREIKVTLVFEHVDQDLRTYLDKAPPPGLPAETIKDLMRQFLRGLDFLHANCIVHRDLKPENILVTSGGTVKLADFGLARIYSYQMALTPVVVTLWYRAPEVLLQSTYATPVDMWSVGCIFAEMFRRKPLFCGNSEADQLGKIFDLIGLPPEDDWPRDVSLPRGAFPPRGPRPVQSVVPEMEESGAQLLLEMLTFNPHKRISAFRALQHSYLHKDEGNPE
CDK4/Cyclin D1, sequence (P24385 whole entry partner): as the sequence (P24385 whole entry partner) above
CDK6, sequence (Q00534 whole entry): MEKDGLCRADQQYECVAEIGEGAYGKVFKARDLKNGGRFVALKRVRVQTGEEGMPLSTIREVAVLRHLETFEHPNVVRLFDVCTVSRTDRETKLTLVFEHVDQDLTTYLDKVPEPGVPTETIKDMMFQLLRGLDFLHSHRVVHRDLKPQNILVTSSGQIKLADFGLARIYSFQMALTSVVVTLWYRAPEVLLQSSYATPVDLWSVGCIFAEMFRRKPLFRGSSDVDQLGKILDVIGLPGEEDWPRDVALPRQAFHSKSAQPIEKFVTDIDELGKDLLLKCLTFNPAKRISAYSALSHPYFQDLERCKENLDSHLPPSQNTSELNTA
CDK6, sequence (P30281 whole entry partner): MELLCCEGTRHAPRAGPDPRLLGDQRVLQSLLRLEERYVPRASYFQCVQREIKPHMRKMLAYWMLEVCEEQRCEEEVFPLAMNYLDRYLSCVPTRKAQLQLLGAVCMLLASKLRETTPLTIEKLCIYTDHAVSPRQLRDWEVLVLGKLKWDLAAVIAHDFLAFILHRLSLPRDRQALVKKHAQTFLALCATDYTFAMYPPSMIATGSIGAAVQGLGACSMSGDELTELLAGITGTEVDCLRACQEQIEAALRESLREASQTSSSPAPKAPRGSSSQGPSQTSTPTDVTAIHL
CDK6/Cyclin D3, sequence (Q00534 whole entry): as the sequence (Q00534 whole entry) above
CDK6/Cyclin D3, sequence (P30281 whole entry partner): as the sequence (P30281 whole entry partner) above

Row | SMILES | Ki (CDK4/Cyclin D1) [nM] | Ki (CDK6/Cyclin D3) [nM] | IC50 (CDK6) [nM] | IC50 (CDK4) [nM]
1 | Cc1nc2c(F)cc(-c3nc(N[C@@H]4CCN(S(C)(=O)=O)C[C@H]4O)ncc3Cl)cc2n1[C@H](C)CN [Example A38, (3R,4R)-4-[(4-{1-[(2R)-1-aminopropan-2-yl]-4-fluoro-2-methyl-1H-benzimidazol-6-yl}-5-chloropyrimidin-2-yl)amino]-1-(methanesulfonyl)piperidin-3-ol] | 0.5 | 10.2 | 598 | 456
2 | Cc1nc2c(F)cc(-c3nc(N[C@@H]4CCN(S(C)(=O)=O)C[C@H]4O)ncc3Cl)cc2n1C(C)C [Example A01, (3R,4R)-4-({5-chloro-4-[4-fluoro-2-methyl-1-(propan-2-yl)-1H-benzimidazol-6-yl]pyrimidin-2-yl}amino)-1-(methanesulfonyl)piperidin-3-ol] | 0.1 | 2.3 | 76.5 | 25.3
3 | CC(C)n1c([C@H](C)N)nc2c(F)cc(-c3nc(N[C@@H]4CCOC[C@H]4O)ncc3Cl)cc21 [Example A53, 3-[(4-{2-[(1S)-1-aminoethyl]-4-fluoro-1-(propan-2-yl)-1H-benzimidazol-6-yl}-5-chloropyrimidin-2-yl)amino]-1,5-anhydro-2,3-dideoxy-D-threo-pentitol] | 0.6 | 16.7 | 208 | 67.3
4 | Cc1nc2cc(F)c(-c3nc(N[C@@H]4CCN(S(C)(=O)=O)C[C@H]4O)ncc3Cl)cc2n1C(C)C [Example A06] | 1.4 | 17.5 | 192 | 87.4
5 | Cc1cc(-c2nc(N[C@@H]3CCN(S(C)(=O)=O)C[C@H]3O)ncc2F)cc2c1nc(C)n2C(C)C [Example A79, (3R,4R)-4-({4-[2,4-dimethyl-1-(propan-2-yl)-1H-benzimidazol-6-yl]-5-fluoropyrimidin-2-yl}amino)-1-(methanesulfonyl)piperidin-3-ol] | 1.8 | 17.6 | 1140 | 598
6 | C[C@H]1COCc2nc3c(F)cc(-c4nc(N[C@@H]5CCN(S(C)(=O)=O)C[C@H]5O)ncc4Cl)cc3n21 [Example A10] | 0.6 | 10.4 | 195 | 72.7
7 | CC(C)n1c(CC(N)C(F)F)nc2c(F)cc(-c3nc(N[C@@H]4CCOC[C@H]4O)ncc3Cl)cc21 (single isomer, unassigned) [Example A57, 3-({4-[2-(2-amino-3,3-difluoropropyl)-4-fluoro-1-(propan-2-yl)-1H-benzimidazol-6-yl]-5-chloropyrimidin-2-yl}amino)-1,5-anhydro-2,3-dideoxy-D-threo-pentitol] | 0.4 | 19.1 | 269 | 49
8 | CC(N)c1nc2c(F)cc(-c3nc(N[C@@H]4CCN(S(C)(=O)=O)C[C@H]4O)ncc3Cl)cc2n1C(C)C (single isomer, unassigned) [Example A48] | 0.1 | 2.3 | 58.9 | 36.5
9 | C[C@@H](O)c1nc2c(F)cc(-c3nc(N[C@@H]4CCN(S(C)(=O)=O)C[C@H]4O)ncc3Cl)cc2n1C(C)(C)C [Example A62, (3R,4R)-4-[(4-{1-tert-butyl-4-fluoro-2-[(1R)-1-hydroxyethyl]-1H-benzimidazol-6-yl}-5-chloropyrimidin-2-yl)amino]-1-(methanesulfonyl)piperidin-3-ol] | 0.5 | 8 | 66.6 | 27.5
10 | CC(C)n1c(CC(C)(C)N)nc2c(F)cc(-c3nc(N[C@@H]4CCOC[C@H]4O)ncc3Cl)cc21 [Example A45, 3-({4-[2-(2-amino-2-methylpropyl)-4-fluoro-1-(propan-2-yl)-1H-benzimidazol-6-yl]-5-chloropyrimidin-2-yl}amino)-1,5-anhydro-2,3-dideoxy-D-threo-pentitol] | 1 | 52 | 468 | 65.8
11 | CC(C)n1c(C(F)F)nc2c(F)cc(-c3nc(N[C@@H]4CCN(S(C)(=O)=O)C[C@H]4O)ncc3Cl)cc21 [Example A69, (3R,4R)-4-({5-chloro-4-[2-(difluoromethyl)-4-fluoro-1-(propan-2-yl)-1H-benzimidazol-6-yl]pyrimidin-2-yl}amino)-1-(methanesulfonyl)piperidin-3-ol] | 0.7 | 4.9 | 238 | 101
12 | CC(C)n1c(C(C)(C)O)nc2c(F)cc(-c3nc(N[C@@H]4CCN(S(C)(=O)=O)C[C@H]4O)ncc3Cl)cc21 [Example A91, (3R,4R)-4-({5-chloro-4-[4-fluoro-2-(2-hydroxypropan-2-yl)-1-(propan-2-yl)-1H-benzimidazol-6-yl]pyrimidin-2-yl}amino)-1-(methanesulfonyl)piperidin-3-ol] | 0.1 | 1.7 | 25.7 | 14.9
13 | Cc1nc2c(F)cc(-c3nc(N[C@@H]4CCN(S(C)(=O)=O)C[C@H]4O)ncc3Cl)cc2n1C1COC1 [Example A89, (3R,4R)-4-({5-chloro-4-[4-fluoro-2-methyl-1-(oxetan-3-yl)-1H-benzimidazol-6-yl]pyrimidin-2-yl}amino)-1-(methanesulfonyl)piperidin-3-ol] | 0.5 | 12 | 570 | 118
14 | CC1(C)OCCn2nc3c(F)cc(-c4nc(N[C@@H]5CCOC[C@H]5O)ncc4F)cc3c21 [Example A80, 1,5-anhydro-2,3-dideoxy-3-{[5-fluoro-4-(7-fluoro-1,1-dimethyl-3,4-dihydro-1H-[1,4]oxazino[4,3-b]indazol-9-yl)pyrimidin-2-yl]amino}-D-threo-pentitol] | 0.5 | 14.7 | 217 | 72.9
15 | CC1CNCc2nc3c(F)cc(-c4nc(N[C@@H]5CCOC[C@H]5O)ncc4Cl)cc3n21 (single isomer, unassigned) [Example A55, 1,5-anhydro-3-{[5-chloro-4-(9-fluoro-4-methyl-1,2,3,4-tetrahydropyrazino[1,2-a]benzimidazol-7-yl)pyrimidin-2-yl]amino}-2,3-dideoxy-D-threo-pentitol] | 3.2 | 64.9 | 283 | 198
16 | CCc1nc2c(F)cc(-c3nc(N[C@@H]4CCN(S(C)(=O)=O)C[C@H]4O)ncc3Cl)cc2n1C1COC1 [Example A71, (3R,4R)-4-({5-chloro-4-[2-ethyl-4-fluoro-1-(oxetan-3-yl)-1H-benzimidazol-6-yl]pyrimidin-2-yl}amino)-1-(methanesulfonyl)piperidin-3-ol] | 0.8 | 11.4 | 287 | 94.9

Second part, the compound after the results:

Row | Ki (CDK4/Cyclin D1) [nM] | Ki (CDK6/Cyclin D3) [nM] | IC50 (CDK6) [nM] | IC50 (CDK4) [nM] | SMILES
17 | 0.6 | 12.5 | 172 | 68.2 | Cc1nc2ccc(-c3cc(N[C@@H]4CCN(S(C)(=O)=O)C[C@H]4O)ncc3Cl)nc2n1C(C)C [Example D04, (3R,4R)-4-({5-chloro-4-[2-methyl-3-(propan-2-yl)-3H-imidazo[4,5-b]pyridin-5-yl]pyridin-2-yl}amino)-1-(methanesulfonyl)piperidin-3-ol]
18 | 0.2 | 5.2 | 113 | 24.6 | CNC(=O)CN1CC[C@@H](Nc2cc(-c3ccc4ncn(C(C)(C)C)c4n3)c(Cl)cn2)[C@H](O)C1 [Example F33, 2-[(3R,4R)-4-{[4-(3-tert-butyl-3H-imidazo[4,5-b]pyridin-5-yl)-5-chloropyridin-2-yl]amino}-3-hydroxypiperidin-1-yl]-N-methylacetamide]
19 | 0.5 | 5.1 | 188 | 60.8 | CC(C)n1cnc2c(F)cc(-c3nc(N[C@@H]4CCN(C(=O)C5(F)CNC5)C[C@H]4O)ncc3Cl)cc21 [Example F27, [(3R,4R)-4-({5-chloro-4-[4-fluoro-1-(propan-2-yl)-1H-benzimidazol-6-yl]pyrimidin-2-yl}amino)-3-hydroxypiperidin-1-yl](3-fluoroazetidin-3-yl)methanone]
20 | 0.9 | 12.8 | 628 | 172 | CC(C)(C)n1cnc2c(F)cc(-c3cc(N[C@@H]4CCN(C(=O)C(F)(F)CN)C[C@H]4O)ncc3Cl)cc21 [Example F32, 3-amino-1-[(3R,4R)-4-{[4-(1-tert-butyl-4-fluoro-1H-benzimidazol-6-yl)-5-chloropyridin-2-yl]amino}-3-hydroxypiperidin-1-yl]-2,2-difluoropropan-1-one]
21 | 2.1 | 25.8 | 478 | 248 | CC(C)(C)n1cnc2c(F)cc(-c3nc(N[C@@H]4CCN(CCO)C[C@H]4O)ncc3Cl)cc21 [Example F05, (3R,4R)-4-{[4-(1-tert-butyl-4-fluoro-1H-benzimidazol-6-yl)-5-chloropyrimidin-2-yl]amino}-1-(2-hydroxyethyl)piperidin-3-ol formic acid salt]
22 | 4.1 | 89.3 | 1350 | 584 | CC(C)n1c(C2CNC2)nc2c(F)cc(-c3nc(N[C@@H]4CCOC[C@H]4O)ncc3Cl)cc21 [Example C02, 1,5-anhydro-3-({4-[2-(azetidin-3-yl)-4-fluoro-1-(propan-2-yl)-1H-benzimidazol-6-yl]-5-chloropyrimidin-2-yl}amino)-2,3-dideoxy-D-threo-pentitol]
23 | 1.4 | 26 | 363 | 675 | CC(=O)N1CC[C@@H](Nc2ncc(F)c(-c3cc(F)c4nc(C)n(C(C)C)c4c3)n2)[C@H](O)C1 [Example F16, 1-[(3R,4R)-4-({5-fluoro-4-[4-fluoro-2-methyl-1-(propan-2-yl)-1H-benzimidazol-6-yl]pyrimidin-2-yl}amino)-3-hydroxypiperidin-1-yl]ethan-1-one]
